Source: PMC4876372 (Scientific Reports, 2016)
Like-named read-outs stand apart in the source and are kept apart here.

Experiments:
[1] = target: T1, His-tagged human recombinant MTH1 protein (Homo sapiens, UniProt P36639); experiment: MTH1 enzyme assay (PPiLight pyrophosphate detection); assay type: biochemical; details: for IC50: MTH1 2 nM; for Ki: Dixon plot; for manner of MTH1 inhibition: with respect to 8-oxo-dGTP and 2-OH-dATP, Lineweaver-Burk
T1 construct: His; purchased ProSpec
Protocol: An MTH1 enzyme assay was performed as described previously with minor modifications. Briefly, test compounds were dissolved in an assay buffer [100 mM Tris-acetate, 40 mM NaCl, 10 mM Mg(OAc)2, 0.005% Tween-20, and 2 mM dithiothreitol (DTT), pH 7.5] containing His-tagged human recombinant MTH1 protein (2 nM; ProSpec). […] Relative MTH1 activity was measured by monitoring the pyrophosphate (PPi) generated through MTH1-catalyzed nucleotide triphosphate hydrolysis. The luciferase-mediated luminescence signal was recorded for 30 min using a luminometer (Molecular Devices).

[2] = target: T2, His-tagged human recombinant DCTPP1 protein (Homo sapiens, UniProt Q9H773); experiment: DCTPP1 enzyme assay; assay type: biochemical; details: at 100 μM
T2 construct: His; purchased ATGen
T2 sequence (Q9H773 1-170): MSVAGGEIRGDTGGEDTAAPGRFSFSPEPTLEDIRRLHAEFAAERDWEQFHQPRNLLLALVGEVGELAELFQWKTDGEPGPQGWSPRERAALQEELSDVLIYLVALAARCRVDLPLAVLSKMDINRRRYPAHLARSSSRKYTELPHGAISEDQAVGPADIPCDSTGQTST
Protocol: Likewise, the enzymatic activities of ITPA and DCTPP1 were measured using a PPiLight Inorganic Pyrophosphate Assay kit. For the ITPA enzyme assay, we used ITPA assay buffer (100 mM Tris-acetate, 50 mM Mg(OAc)2, 0.005% Tween-20, and 2 mM DTT, pH 7.5), His-tagged human recombinant ITPA protein (5 nM; ProSpec), and ITP (25 μM). For the DCTPP1 enzyme assay, we used DCTPP1 assay buffer (100 mM Tris-acetate, 100 mM NaCl, 10 mM Mg(OAc)2, 0.005% Tween-20, and 2 mM DTT, pH 7.5), His-tagged human recombinant DCTPP1 protein (50 nM; ATGen), and deoxycytidine triphosphate (dCTP; 50 μM).
To exclude false positive compounds that inhibit PPi detection, the effects of test compounds on 10 μM Na4P2O7-induced luciferase activity were examined.

[3] = Cell death assay (WST-8) in HeLa cells; assay type: cell-based, human; details: human, HeLa cells (cervical cancer); 72 h, WST-8; read-out: cytotoxicity IC50 against HeLa cells
Protocol: Human cancer cell lines HeLa (cervical cancer), MIA PaCa-2 (pancreatic cancer), A431 (epidermoid carcinoma), and human embryonic kidney derived cell line HEK293T were cultured in Dulbecco’s Modified Eagle’s Medium (DMEM; Invitrogen) containing 10% fetal bovine serum (FBS), penicillin G (50 units/mL) and streptomycin (50 µg/mL). Human cancer cell lines Panc-1 (pancreatic cancer) and Jurkat (T cell lymphoma) were cultured in RPMI (Gibco) containing 10% FBS, penicillin G (50 units/mL) and streptomycin (50 µg/mL). Human osteosarcoma cell line MG-63, mouse embryonic fibroblast NIH3T3 cells and its transformant NIH3T3/KRAS cells1 were cultured in DMEM (Sigma-Aldrich) containing 10% calf serum, glutamine (0.3 g/L), penicillin G (50 units/mL), and streptomycin (50 µg/mL). All cell lines were incubated at 37 °C in a humidified atmosphere containing 5% CO2.
The cells were seeded in 96-well plates, cultured overnight, and treated with test compounds for the indicated time. Subsequently, cell viability was measured by the WST-8 assay, using Cell Count Reagent SF (Nacalai Tesque) according to the manufacturer ’s instructions, with the measurement of absorbance set at 450 nm on the ARVO SX 1420 Multilabel Counter (Wallac). […]

[4] = test system: nuclear 53BP1 foci in HeLa cells; experiment: 53BP1 foci immunofluorescence (DNA damage); assay type: cell-based, human; details: 24 h, only at the higher concentrations (100-300 μM)
Protocol: For 53BP1, test compound–treated HeLa cells were fixed in 3% formalin in PBS containing 0.1% Triton X-100 for 15 min and permeabilized in 0.5% Triton X-100 for 5 min. After blocking with 10% FBS and 0.1% Triton X-100 in PBS for 1 h, cells were incubated sequentially with a primary antibody against 53BP1 (1:600, sc-22760; Santa Cruz Biotechnology) in blocking solution at 37 °C for 1 h and with Alexa Fluor 568-conjugated secondary antibody (1:400, Life Technologies) under the same condition.
After a quick rinse in PBS, DNA was counterstained with 0.5 µg/mL Hoechst 33342 (Sigma-Aldrich) in PBS at room temperature for 10 min. Images were analyzed on a fluorescence microscope (Delta Vision). […]

HeLa cells = experiment: Cell cycle analysis (propidium iodide flow cytometry); assay type: cell-based, human; details: 24 h, HeLa cells (Ctrl 0.9%)
Protocol: The HeLa cells were seeded in 12-well plates and treated with test compounds for the indicated time. Cells were harvested, washed with PBS, and incubated in propidium iodide (PI) solution containing 50 µg/mL propidium iodide, 0.1% sodium citrate, 0.2% Nonidet P-40, and 0.25 µg/mL RNase A (Nacalai Tesque) for 30 mi n in the dark.
Cellular DNA content was analyzed by fluorescence-activated cell sorting using a Cytomics FC500 (Beckman Coulter). […]

[5] = substrate 2-OH-dATP (8.3 μM), read-out: IC50 of MTH1 inhibitory activity, 2-OH-dATP
[6] = substrate 2-OH-dATP, read-out: Ki for 2-OH-dATP
[7] = substrate 8-oxo-dGTP, read-out: Ki for 8-oxo-dGTP

Structure (SMILES)	IC50 [1, 5] [nM]	Ki [1, 6] [nM]	Ki [1, 7] [nM]	manner of MTH1 inhibition [1]	effect on enzymatic activity of DCTPP1 [2]	IC50 at 72 h [3] [µM]	DNA damage (nuclear 53BP1 foci formation) [4]	sub-G1 cell population (HeLa cells; 100 μM) [%]	sub-G1 cell population (HeLa cells; 200 μM) [%]	IC50 ([1]; substrate 8-oxo-dGTP (13.2 μM), read-out: IC50 of MTH1 inhibitory activity, 8-oxo-dGTP) [nM]
CC1(C)CC2CC(C)(CN2c2ncnc3[nH]cnc23)C1 (stereo not shown) [NPD7155]	380 ± 160	180 ± 30	100 ± 40	competitive	did not affect	65	increased nuclear 53BP1 foci formation	4.9	9.0	
Nc1nc(NCCc2ccccc2)c2nc[nH]c2n1 [NPD9948]	500 ± 210	220 ± 40	130 ± 50	competitive	did not affect	35	increased nuclear 53BP1 foci formation	8.2	19	290 ± 50
